In patent US10321683B2, “Insecticidal, miticidal, nematicidal, molluscicidal, microbicidal, or bactericidal composition and method for controlling pest” (NISSAN CHEMICAL INDUSTRIES, LTD., priority 2014, dated 2019):

Tests used:
[1] = tested on: third instar larvae of common cutworms; assay: Efficacy test for common cutworm (cabbage leaf dip); assay type: in vivo, Common cutworm (Spodoptera litura); conditions: six days after the treatment
Protocol: Each of Compound (1) or Compound (2) and the compounds listed in Table 1 was formulated into a 10% emulsifiable concentrate (some compound was formulated into a 25% wettable powder). The formulations were diluted with water containing a spreading agent to prepare chemical solutions of given concentrations. Cabbage leaves were dipped in the chemical solutions for 10 seconds. The dipped cabbage leaves were transferred on filter papers placed in 7 cm petri dishes with one leaf per one petri dish, and the leaves were air dried. After the air drying was completed, the seven third instar larvae of common cutworms were placed in each petri dish and then the petri dishes were placed in an incubator at 25° C. Six days after the treatment, the numbers of dead larvae were checked, and the percentages of dead insects were calculated according to the calculating equation below. Note that the tests were conducted in duplicate. The percentage of dead insects (%)=the number of dead insects/the number of tested insects×100
(§1) To each concentration of chemical solutions, the synergistic effect was calculated from the percentage of dead insects by using Colby's method (Colby S. R. 1976, Weeds 15, 20-22). The calculation method was as follows. E=X+Y−XY/100
(§2) X: an observed value at an x concentration of Chemical A (the percentage of dead insects)
(§3) Y: an observed value at a y concentration of Chemical B (the percentage of dead insects)
(§4) E: the percentage of dead insects expected at the time of a mixed treatment with Chemical A and Chemical B.
(§5) If the observed value was larger than the expected value, there was a synergistic effect; if the expected value was larger than the observed value, there was an antagonist effect; and if the observed value and the expected value were same, there was an additive effect.

[2] = tested on: Western flower thrips larva; assay: Efficacy test for Western flower thrips larva (leaf disk spray); assay type: in vivo, Western flower thrips (Frankliniella occidentalis); conditions: 1 day after spraying
Protocol: A styrol cup (having the diameter of the lid of 7.5 cm, and the height of 4 cm) was filled with tap water, and a lid having a hole in its center was placed on the styrol cup, and a leaf disk (having the diameter of 1.7 cm) made of a common bean leaf was placed on the lid. Suitable amounts of eggs of Western flower thrips were placed on the leaf disk, and were controlled in a thermostatic chamber for 24 hours to be hatched. Each of Compound (1) or Compound (2) and the compounds listed in Table 1 was formulated into a 10% emulsifiable concentrate. The formulations were diluted with water to prepare chemical solutions of given concentrations. Each of the test containers was treated with a spray solution as was uniformly sprayed by using a spraying apparatus (2.5 ml/cup). Examinations were conducted 1 day after spraying, and the percentages of dead insects were calculated according to the calculating equation below. Note that the tests were conducted in duplicate. The percentage of dead insects (%)=the number of dead insects/the number of tested insects×100
as §1, §2, §3, §4, §5

[3] = tested on: fourth instar larvae of cotton bollworms; assay: Efficacy test for cotton bollworm (cabbage leaf dip); assay type: in vivo, Cotton bollworm (Helicoverpa armigera); conditions: six days after the treatment
Protocol: Each of Compound (1) or Compound (2) and the compounds listed in Table 1 was formulated into a 10% emulsifiable concentrate (some compound was formulated into a 25% wettable powder). The formulations were diluted with water containing a spreading agent to prepare chemical solutions of given concentrations. Cabbage leaves were dipped in the chemical solutions for 10 seconds. The dipped cabbage leaves were transferred on filter papers placed in 7 cm petri dishes with one leaf per one petri dish, and the leaves were air dried. After the air drying was completed, the seven fourth instar larvae of cotton bollworms were placed in each petri dish, and then, the petri dishes were placed in an incubator at 25° C. Six days after the treatment, the numbers of dead larvae were checked, and the percentages of dead insects were calculated according to the calculating equation below. Note that the tests were conducted in duplicate. The percentage of dead insects (%)=the number of dead insects/the number of tested insects×100
as §1, §2, §3, §4, §5

varroa mites = assay: Efficacy test for varroa mite (coated screw bottle); assay type: in vivo; conditions: 100 μg/tube; 24 hours after placing
Protocol: The Compound (1) or Compound (2) was adjusted to a given concentration with acetone. After the adjustment, 300 μl of each of the prepared solutions was poured into a 20 ml screw bottle. The solvent was volatilized as the inner surface of the bottle was uniformly coated with the solution, and then the bottle was stored in a cool and dark place overnight. To obtain varroa mites, a blood comb was taken out from a beehive of honey bees on the day before placing of mites, and pupae having varroa mites were taken and placed in a petri dish. The petri dish was stored in an incubator at 34° C. overnight under the total darkness condition, and then only surviving varroa mites were collected. The collected varroa mites were placed in each of the screw bottles that were treated with the above-described chemicals, and the screw bottles were closed with caps. After three hours, the pupae of honey bees were placed in the screw bottles; the screw bottles were closed with caps again, and were stored in an incubator at 34° C. under the total darkness condition. The number of dead insects 24 hours after placing was checked, and the percentages of dead insects were calculated according to the calculating equation below. Note that the tests were conducted in quadruplicate of three in one plot. The percentage of dead insects (%)=the number of dead insects/the number of tested insects×100

[4] = tested on: sweetpotato whitefly adult insects; assay: Efficacy test for sweetpotato whitefly biotype B (leaf disk spray); assay type: in vivo, Sweetpotato whitefly (Bemisia tabaci) biotype B; conditions: 5 days after spraying
Protocol: Each of Compound (1) or Compound (2) and the compounds listed in Table 1 was formulated into a 10% emulsifiable concentrate. The formulations were diluted with water to prepare chemical solutions of given concentrations. A styrol cup (having the diameter of the lid of 7.5 cm, and the height of 4 cm) was filled with tap water, and a lid having a hole in its center was placed on the styrol cup, and a filter paper was placed on the lid to absorb tap water. An absorbent cotton (5 cm×5 cm) wetted with tap water was placed on the filter paper, and a leaf disk (having the diameter of 3 cm) made of a common bean leaf was placed on the absorbent cotton. Each of the test containers was treated with a spray solution as was uniformly sprayed by using a spraying apparatus (2.5 ml/cup). The 20 sweetpotato whitefly adult insects were placed on the leaf disk, and a mesh lid was placed over the container to prevent escape of the insects. Examinations were conducted 5 days after spraying, and the percentages of dead insects were calculated according to the calculating equation below. Note that the tests were conducted in duplicate. The percentage of dead insects (%)=the number of dead insects/the number of tested insects×100 To each concentration of chemical solutions, the synergistic effect was calculated from the percentage of dead insects by using Colby's method (Colby S. R. […], Weeds 15, 20-22). […]

[5] = tested on: melon thrips female adult insects; assay: Efficacy test for melon thrips female adult insect (leaf disk spray); assay type: in vivo, Melon thrips (Thrips palmi); conditions: 2 days after spraying
Protocol: Each of Compound (1) or Compound (2) and the compounds listed in Table 1 was formulated into a 10% emulsifiable concentrate. The formulations were diluted with water to prepare chemical solutions of given concentrations. A styrol cup (having the diameter of the lid of 7.5 cm, and the height of 4 cm) was filled with tap water, and a lid having a hole in its center was placed on the styrol cup, and a filter paper was placed on the lid to absorb tap water. An absorbent cotton (5 cm×5 cm) wetted with tap water was placed on the filter paper, and a leaf disk (having the diameter of 1.7 cm) made of a cucumber leaf was placed on the absorbent cotton. The ten melon thrips female adult insects were placed on the leaf disk. Each of the test containers was treated with a spray solution as was uniformly sprayed by using a spraying apparatus (2.5 ml/cup). Examinations were conducted 2 days after spraying, and the percentages of dead insects were calculated according to the calculating equation below. Note that the tests were conducted in duplicate. The percentage of dead insects (%)=the number of dead insects/the number of tested insects×100
To each concentration of chemical solutions, the synergistic effect was calculated from the percentage of dead insects by using Colby's method (Colby S. R. 1976, Weeds 15, 20-22). The calculation method was as follows. E=X+Y−XY/100 […]

## N#Cc1ccc(CC(=NNC(=O)Nc2ccc(OC(F)(F)F)cc2)c2cccc(C(F)(F)F)c2)cc1 (mixture of isomers) [Compound dc, metaflumizone, reference compound]
[1]; Table 6, 1.7 ppm
  Percentage of Dead Insect (%) Observed Value: 53.8%

## Cc1c(COC(=O)[C@@H]2[C@H](/C=C(\Cl)C(F)(F)F)C2(C)C)cccc1-c1ccccc1 (racemic) [Compound q, bifenthrin]
[2]; 20 ppm
  Percentage of Dead Insect (%) Observed Value: 8.5%

## Cc1cc(C2=NOC(c3cc(Cl)cc(Cl)c3)(C(F)(F)F)C2)ccc1C(=O)NCC(=O)NCC(F)(F)F (stereo not drawn) [Compound (1), 4-[5-(3,5-dichlorophenyl)-4,5-dihydro-5-(trifluoromethyl)isoxazole-3-yl]-2-methyl-N-[2-oxo-2-[(2,2,2-trifluoroethyl)amino]ethyl]benzamide]
[3]; 0.125 ppm
  Percentage of Dead Insect (%) Observed Value: 28.6%
Varroa mites
  Percentage of Dead Insect (%): 100%
[1]; 0.017 ppm
  Percentage of Dead Insect (%) Observed Value: 28.6%

## CO/N=C\NC(=O)c1ccc(C2=NOC(c3cc(Cl)cc(Cl)c3)(C(F)(F)F)C2)cc1C (stereo not drawn) [Compound (2), (Z)-4-[5-(3,5-dichlorophenyl)-5-trifluoromethyl-4,5-dihydroisoxazole-3-yl]-N-(methoxyiminomethyl)-2-methylbenzamide]
[2]; 1 ppm
  Percentage of Dead Insect (%) Observed Value: 29.5%
[3]; 0.125 ppm
  Percentage of Dead Insect (%) Observed Value: 35.7%
[4]; 5 ppm
  Percentage of Dead Insect (%) Observed Value: 36.6%
Varroa mites
  Percentage of Dead Insect (%): 100%
[1]; 0.017 ppm
  Percentage of Dead Insect (%) Observed Value: 35.7%
[1]; Table 4, 0.025 ppm
  Percentage of Dead Insect (%) Observed Value: 35.7%
[1]; Table 5, 0.025 ppm
  Percentage of Dead Insect (%) Observed Value: 35.7%
[1]; Table 6, 0.025 ppm
  Percentage of Dead Insect (%) Observed Value: 35.7%
[1]; Table 7, 0.005 ppm
  Percentage of Dead Insect (%) Observed Value: 14.3%
[1]; Table 8, 0.005 ppm
  Percentage of Dead Insect (%) Observed Value: 14.3%
[5]; 5 ppm
  Percentage of Dead Insect (%) Observed Value: 42.1%

## CNC(=O)c1cc(Cl)cc(C)c1NC(=O)c1cc(Br)nn1-c1ncccc1Cl [Compound aa, chlorantraniliprole, reference compound]
[1]; 0.083 ppm
  Percentage of Dead Insect (%) Observed Value: 21.4%

## CNC(=O)c1cc(C#N)cc(C)c1NC(=O)c1cc(Br)nn1-c1ncccc1Cl [Compound al, cyantraniliprole, reference compound]
[3]; 0.25 ppm
  Percentage of Dead Insect (%) Observed Value: 42.9%

## CC(NC(=O)c1cc(Cl)cc(Br)c1NC(=O)c1cc(Br)nn1-c1ncccc1Cl)C1CC1 (stereo not drawn) [Compound am, cyclaniliprole, reference compound]
[1]; Table 7, 0.17 ppm
  Percentage of Dead Insect (%) Observed Value: 7.7%

## CC1(C)[C@H](C(=O)O[C@H](C#N)c2cccc(Oc3ccccc3)c2)[C@@H]1/C=C(\Cl)C(F)(F)F [Compound ar, gamma-cyhalothrin, reference compound]
[1]; 0.5 ppm
  Percentage of Dead Insect (%) Observed Value: 35.7%

## CCc1nc2cc(C)c(Oc3ccc(OC(F)(F)F)cc3)cc2c(OC(=O)OC)c1C [Compound bx, flometoquin, reference compound]
[5]; 2.5 ppm
  Percentage of Dead Insect (%) Observed Value: 52.6%

## Cc1cc(C(F)(C(F)(F)F)C(F)(F)F)ccc1NC(=O)c1cccc(I)c1C(=O)NC(C)(C)CS(C)(=O)=O [Compound ca, flubendiamide, reference compound]
[3]; 0.025 ppm
  Percentage of Dead Insect (%) Observed Value: 35.7%

## O=C(NC(=O)c1c(F)cccc1F)Nc1ccc(Oc2ccc(C(F)(F)F)cc2Cl)cc1F [Compound ce, flufenoxuron]
[2]; 20 ppm
  Percentage of Dead Insect (%) Observed Value: 27.2%

## O=C1C=C(N(Cc2ccc(Cl)nc2)CC(F)F)CO1 [Compound ci, flupyradifurone, reference compound]
[4]; 25 ppm
  Percentage of Dead Insect (%) Observed Value: 40.5%

## spinetoram [Compound el, reference compound]
[1]; Table 5, 4.4 ppm
  Percentage of Dead Insect (%) Observed Value: 78.6%

## spinosad [Compound em, reference compound]
[1]; Table 4, 32 ppm
  Percentage of Dead Insect (%) Observed Value: 60.0%

## tetraniliprole [Compound ey, reference compound]
[1]; Table 8, 1.7 ppm
  Percentage of Dead Insect (%) Observed Value: 64.3%
